Experimental findings from patent publication US20100048575A1, “NOVEL TETRACYCLIC INHIBITORS OF CYSTEINE PROTEASES, THE PHARMACEUTICAL COMPOSITIONS THEREOF AND THEIR THERAPEUTIC APPLICATIONS” (priority 2006, published 2010) are described below.

The structures appear in SMILES notation.

One assay has as its target T1, USP8 (Homo sapiens, UniProt P40818).
T1 construct: His tag (from vector pFastBac-HT) (N); made in house; host or cells: insect cells (Sf9 or High Five), baculovirus
T1 sequence (P40818 1-1118): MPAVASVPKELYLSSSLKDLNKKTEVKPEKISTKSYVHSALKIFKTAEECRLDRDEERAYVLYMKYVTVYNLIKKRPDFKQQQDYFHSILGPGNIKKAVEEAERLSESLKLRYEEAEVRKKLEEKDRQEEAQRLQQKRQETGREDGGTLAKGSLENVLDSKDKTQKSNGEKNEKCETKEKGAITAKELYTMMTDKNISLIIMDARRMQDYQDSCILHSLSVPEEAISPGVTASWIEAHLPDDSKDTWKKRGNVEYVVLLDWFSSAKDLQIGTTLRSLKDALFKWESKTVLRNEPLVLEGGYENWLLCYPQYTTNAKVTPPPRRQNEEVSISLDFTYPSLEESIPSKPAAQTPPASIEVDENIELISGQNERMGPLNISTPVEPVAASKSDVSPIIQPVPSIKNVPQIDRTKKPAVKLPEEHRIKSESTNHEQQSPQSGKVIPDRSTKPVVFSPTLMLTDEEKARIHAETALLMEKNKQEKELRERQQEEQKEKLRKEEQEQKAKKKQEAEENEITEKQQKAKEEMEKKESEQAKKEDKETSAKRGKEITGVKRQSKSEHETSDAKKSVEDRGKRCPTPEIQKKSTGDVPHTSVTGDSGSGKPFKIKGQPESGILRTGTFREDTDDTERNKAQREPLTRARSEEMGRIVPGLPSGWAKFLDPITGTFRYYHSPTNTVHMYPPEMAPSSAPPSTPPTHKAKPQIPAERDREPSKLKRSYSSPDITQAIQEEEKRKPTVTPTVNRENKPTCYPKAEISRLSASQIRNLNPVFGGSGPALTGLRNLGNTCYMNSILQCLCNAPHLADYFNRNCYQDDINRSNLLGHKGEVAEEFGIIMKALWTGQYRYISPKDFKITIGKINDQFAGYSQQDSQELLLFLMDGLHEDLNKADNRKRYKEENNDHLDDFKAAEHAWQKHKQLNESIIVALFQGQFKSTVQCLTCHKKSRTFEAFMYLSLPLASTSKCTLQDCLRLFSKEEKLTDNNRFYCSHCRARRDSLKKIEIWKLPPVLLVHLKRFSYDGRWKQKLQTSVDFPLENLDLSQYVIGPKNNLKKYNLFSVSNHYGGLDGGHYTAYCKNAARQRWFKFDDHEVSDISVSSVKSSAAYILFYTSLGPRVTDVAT
As to the kind of experiment: USP8 activity assay (Ub-AMC). The conditions noted are these: 400 nM Ub-AMC, 630 pM enzyme, pH8.8, 30 min pre-incubation, 60 min at 37° C., sigmoidal fit; read-out: USP8 (inhibition of cysteine protease activity). It is filed as biochemical. The text has this: The cDNA encoding USP8 was obtained by PCR amplification from placenta mRNA. USP8 cDNA was subcloned by PCR into a baculovirus expression vector (pFastBac-HT; Invitrogen). A cDNA encoding a mutated USP8 was generated by mutagenic PCR. The corresponding protein encodes a cysteine to alanine substitution at residue 786. The sequences were ascertained by sequencing of the entire open reading frame. Bacmids encoding […] were generated following. DH10bac transposition. The corresponding bacmids were transfected into insect cells (Sf9). Viruses were recovered from culture supernatant and amplified twice. Insect cells (Sf9 or High Five; Invitrogen) were infected for 72 hours. Total cell lysates were harvested and lyzed in lysis buffer (Tris HCl 50 mM pH7.6; 0.75% NP40; 500 mM NaCl; 10% glycerol; 1 mM DTT; 10 mM imidazole; Protease Inhibitor Cocktail; AEBSF 20 μg.ml^−1; Aprotinin 10 μg.ml^−1). Proteins were affinity purified on metal affinity resins (Talon Metal affinity resin; BD Biosciences). Bound materials were extensively washed in wash buffer (50 mM Sodium Phosphate pH 7.0; 300 mM NaCl; 10 mM imidazole; 0.5% Triton X-100; 10% glycerol) and eluted from the resin in 250 mM imidazole-containing wash buffer. Proteins were dialyzed in dialysis buffer (Tris HCl pH 7.6 20 mM; NaCl 200 mM; DTT 1 mM; EDTA 1 mM; 10% Glycerol). Proteins purifications were analyzed on 4-12% NuPAGE (Invitrogen).
USP8 was diluted in USP buffer (50 mM Tris HCl; 0.5 mM EDTA; 5 mM DTT; 0.01% Triton X-100; Bovine Serum Albumin 0.05 mg.ml^−1 pH8.8). Compounds stocks (100 mM) were stored at −20° C. in DMSO.
Reactions were performed as duplicates in Black LJL 96 well plates (HE microplates; Molecular Devices; 20 μl final reaction volume). The substrate concentration for USP8 was 400 nM Ub-AMC (Boston Biochem). The concentrations of the enzyme (USP8) in specificity assays was 630 pM. The concentrations were determined in order to perform specificity assays under initial velocities at fixed substrate concentration. Compounds were pre-incubated with enzymes for 30 minutes at 25° C. Reactions were initiated by addition of substrate to the plates containing the enzymes (+/−compounds) diluted in assay buffer. Reactions were incubated for 60 minutes at 37° C. Reactions were stopped by adding acetic acid (100 mM final). Readings were performed on a Pherastar Fluorescent Reader (BMG). λ Emission 380 nm; λ Excitation=460 nm. Data (mean values +/−standard deviation) were analyzed as % of control (no compound) and plotted as percentage versus the Log of the compound concentration using GraphPad (Prism). Data were fitted to a sigmoidal model (variable slope).

Another assay concerns the target T2, Uch-L3 (Homo sapiens, UniProt P15374).
T2 sequence (P15374 1-230): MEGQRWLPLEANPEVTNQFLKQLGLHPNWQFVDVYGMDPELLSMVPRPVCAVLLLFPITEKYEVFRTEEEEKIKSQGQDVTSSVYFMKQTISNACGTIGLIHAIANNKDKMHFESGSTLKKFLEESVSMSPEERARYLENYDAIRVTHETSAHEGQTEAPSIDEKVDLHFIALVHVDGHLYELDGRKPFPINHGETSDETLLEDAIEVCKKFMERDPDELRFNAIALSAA
As to the kind of experiment: UCH-L3 activity assay (Ub-AMC). It is filed as biochemical. The conditions noted are these: 400 nM Ub-AMC, 13 pM enzyme, 30 min pre-incubation, 60 min at 37° C., sigmoidal fit; read-out: Uch-L3 (inhibition of cysteine protease activity). The protocol:
Uch-L3 was diluted in USP buffer (50 mM Tris HCl; 0.5 mM EDTA; 5 mM DTT; 0.01% Triton X-100; Bovine Serum Albumin 0.05 mg.ml^−1 pH7.6). Compounds stocks (100 mM) were stored at −20° C. in DMSO. Compounds were tested at the following final concentrations: 100 μM; 33.3 μM; 11.1 μM; 3.7 μM; 1.23 μM; 412 nM; 137 nM; 45.7 nM, 15.2 nM; 5 nM.
Reactions were performed as duplicates in Black LJL 96 well plates (HE microplates; Molecular Devices; 20 μl final reaction volume). The substrate concentration for Uch-L3 was 400 nM Ub-AMC (Boston Biochem). The concentration of the enzyme (Uch-L3) in specificity assays was 13 pM. The concentrations were determined in order to perform specificity assays under initial velocities at fixed substrate concentration. Compounds were pre-incubated with enzymes for 30 minutes at 25° C. Reactions were initiated by addition of substrate to the plates containing the enzymes (+/−compounds) diluted in assay buffer.
Reactions were incubated for 60 minutes at 37° C. Reactions were stopped by adding acetic acid (100 mM final). Readings were performed on a Pherastar Fluorescent Reader (BMG). δ Emission 380 nm; 6 Excitation=460 nm. Data (mean values +/−standard deviation) were analyzed as % of control (no compound) and plotted as percentage versus the Log of the compound concentration using GraphPad (Prism). Data were fitted to a sigmoidal model (variable slope).

`C=CCON=C1c2ccccc2-c2nc3nnc(C)n3nc21` (mixture of isomers) [5c, 1-Methyl-2,3,4,10,10a-pentaaza-cyclopenta[b]fluoren-9-one O-allyl-oxime]: the IC50 on USP8 came to 47.7 µM; at Uch-L3, 51 µM.

As to `C=CCON=C1c2ccccc2-c2nc3nnc(CCCC)n3nc21` (mixture of isomers) [5e, 1-Butyl-2,3,4,110,10a-pentaaza-cyclopenta[b]fluoren-9-one O-allyl-oxime], the figures for the IC50 at USP8 and on Uch-L3 were 35 µM and 89 µM, respectively.
